Data reported in patent US20050014647A1, “Method and composition for determining resistance to an acetohydroxy-acid synthase inhibitor” (priority 2001, published 2005).
Values joined by “and” are separate entries in the source; they are usually repeats but may differ in a detail not shown here. Identical values can stand only once.

Columns and labels:
Type in all cases: cell-based
AHAS [1] = assay: in vivo AHAS assay, rice leaf discs with external supplement
Protocol: (§1) The procedure for the preparation of an in vivo AHAS assay is described below:
(§2) For the experiments, plants are grown from seed in soil in a greenhouse. Most experiments used wild type and imidazolinone resistant varieties of wheat, canola, rice, sunflower, and maize.
(§3) For the assay, a a microtiter plate is set up with 100 μl of one of the following solutions in each well: • a. […] Plant., 15 473-497 (1962)); 500 μM CPCA (cyclopropyldicarboxylic acid); • b. Solution B: Solution A+alanine (or other supplements); • c. Solution C: Solution A+a pyruvate salt (or other supplements).
(§4) Plant material is excised from the newest emerging, rapidly growing leaf or stem from the test plant and placed in one of the microtiter plates. Usually, 5 mm leaf discs are cut from the newest emerging leaf. At least 2 discs per plant are cut. One disc is put in a well with Solution A and the other disc in a well with one of the other Solutions B or C (what solution are you using for background?).
(§5) After all wells in the microtiter plate contain plant material, the plate is covered with the microtiter plate cover and the plate with material is placed in a chamber with continuous fluorescent lights for 12 to 16 hours. The incubation is stopped by placing the plate in −20° C. freezer. After tissue and solutions freeze, the plate is thawed at room temperature and 25 μL of 5% sulfuric acid are added to each well. After incubation at 60° C. for 15 minutes, 175 μL of a freshly prepared mixture of α-naphthol (2.5%) and creatine (0.25%) in 2 N NaOH are added to each well and the plate is incubated at 60° C. for 15 minutes.
(§6) 200 μL from each well are transferred to a new plate and OD530 on microtiter plate is readed by a spectrophotometer.

AHAS [2] = assay: in vivo AHAS assay, wheat leaf discs with external supplement; details: 14 hours
Protocol: as §1, §2
(§7) For the assay, a a microtiter plate is set up with 100 μl of one of the following solutions in each well: • a. Solution A: 10 mM phosphate buffer, pH 6; 10% Murashige and Skoog basal mineral salts (according to Murashige, T. and Skoog, F., Physiol. Plant., 15 473-497 (1962)); 500 μM CPCA (cyclopropyldicarboxylic acid); • b. Solution B: Solution A+alanine (or other supplements); • c. Solution C: Solution A+a pyruvate salt (or other supplements).
as §4, with “background?). […]” for “background?).”
as §6

AHAS [3] = assay: in vivo AHAS assay, maize leaf discs with external supplement
Protocol: as §1, §2, §3, §4, §5, §6

AHAS [4] = assay: in vivo AHAS assay, canola leaf discs with external supplement
AHAS [5] = assay: as above; details: for % of No Alaninor Pyruvate: Pyruvate 0 mM
Protocol: as §1, §2, §7, §4, §5, §6

AHAS [6] = assay: in vivo AHAS assay, sunflower leaf discs with external supplement; details: 14 hours
Protocol: as §1, §2, §3, §4, §5, §6

[7] = alanine 1.000 % vs 0.000 %, 14 hours
[8] = alanine 1.000 %, 14 hours, 500 μM CPCA
[9] = canola, Alanine (100 mM), replicates 1-3, 14 hours

C[C@H](N)C(=O)O [Alanine, L-alanine]
Ratio (Ala/No Ala) (AHAS [1]; [7]): 7.0
OD 530 (AHAS [1]; [8]): 1.257
Ratio (Ala/No Ala) (AHAS [1]; pH 4, 14 hours): 2.83
in vivo AHAS activity, Alanine (%) 1 (AHAS [1]; pH 4, alanine 1 %, 14 hours): 0.903
Ratio (Ala/No Ala) (AHAS [1]; pH 5, 14 hours): 3.57
in vivo AHAS activity, Alanine (%) 1 (AHAS [1]; pH 5, alanine 1 %, 14 hours): 0.731
Ratio (Ala/No Ala) (AHAS [1]; pH 6, 14 hours): 3.65
in vivo AHAS activity, Alanine (%) 1 (AHAS [1]; pH 6, alanine 1 %, 14 hours): 0.639
Ratio (Ala/No Ala) (AHAS [1]; pH 7, 14 hours): 3.31
in vivo AHAS activity, Alanine (%) 1 (AHAS [1]; pH 7, alanine 1 %, 14 hours): 0.58
Ratio (Ala/No Ala) (AHAS [2]; alanine 1.000 % vs 0.000 %): 2.1
OD 530 (AHAS [2]; alanine 1.000 %, 500 μM CPCA): 0.832
Ratio (Ala/No Ala) (AHAS [3]; [7]): 1.7
OD 530 (AHAS [3]; [8]): 0.203
Ratio (Ala/No Ala) (AHAS [3]; pH 4, 14 hours): 1.89
in vivo AHAS activity, Alanine (%) 1 (AHAS [3]; pH 4, alanine 1 %, 14 hours): 0.909
Ratio (Ala/No Ala) (AHAS [3]; pH 5, 14 hours): 3.50
in vivo AHAS activity, Alanine (%) 1 (AHAS [3]; pH 5, alanine 1 %, 14 hours): 0.847
Ratio (Ala/No Ala) (AHAS [3]; pH 6, 14 hours): 5.71
in vivo AHAS activity, Alanine (%) 1 (AHAS [3]; pH 6, alanine 1 %, 14 hours): 1.033
Ratio (Ala/No Ala) (AHAS [3]; pH 7, 14 hours): 4.32
in vivo AHAS activity, Alanine (%) 1 (AHAS [3]; pH 7, alanine 1 %, 14 hours): 1.128
Ratio (Ala/No Ala) (AHAS [4]; pH 4, 14 hours): 2.78
in vivo AHAS activity, Alanine (%) 1 (AHAS [4]; pH 7, alanine 1 %, 14 hours): 2.299
Ratio (Ala/No Ala) (AHAS [5]; Canola, alanine 1.000 % vs 0.000 %, 14 hours): 5.4
OD 530 (AHAS [5]; Canola, alanine 1.000 %, 14 hours, 500 μM CPCA): 2.838
in vivo AHAS activity, Alanine (%) 1 (AHAS [5]; Canola, pH 4, alanine 1 %, 14 hours): 2.271
Ratio (Ala/No Ala) (AHAS [5]; Canola, pH 5, 14 hours): 2.94
in vivo AHAS activity, Alanine (%) 1 (AHAS [5]; Canola, pH 5, alanine 1 %, 14 hours): 2.383
Ratio (Ala/No Ala) (AHAS [5]; Canola, pH 6, 14 hours): 3.12
in vivo AHAS activity, Alanine (%) 1 (AHAS [5]; Canola, pH 6, alanine 1 %, 14 hours): 2.036
Ratio (Ala/No Ala) (AHAS [5]; Canola, pH 7, 14 hours): 2.38
Increased Activity (%) (AHAS [5]; canola 45A71, alanine 0.063 % compared with no alanine): 150%
OD 530 (AHAS [5]; canola 45A71, alanine 0.063 %, pH 6, 14 hours): 0.785
Increased Activity (%) (AHAS [5]; canola 45A71, alanine 0.125 % compared with no alanine): 182%
OD 530 (AHAS [5]; canola 45A71, alanine 0.125 %, pH 6, 14 hours): 0.955
Increased Activity (%) (AHAS [5]; canola 45A71, alanine 0.25 % compared with no alanine): 181%
OD 530 (AHAS [5]; canola 45A71, alanine 0.25 %, pH 6, 14 hours): 0.946
Increased Activity (%) (AHAS [5]; canola 45A71, alanine 0.5 % compared with no alanine): 198%
OD 530 (AHAS [5]; canola 45A71, alanine 0.5 %, pH 6, 14 hours): 1.038
Increased Activity (%) (AHAS [5]; canola 45A71, alanine 1 % compared with no alanine): 262%
OD 530 (AHAS [5]; canola 45A71, alanine 1 %, pH 6, 14 hours): 1.373
Increased Activity (%) (AHAS [5]; canola 45A71, alanine 2 % compared with no alanine): 290%
OD 530 (AHAS [5]; canola 45A71, alanine 2 %, pH 6, 14 hours): 1.518
Increased Activity (%) (AHAS [5]; canola 45A71, alanine 4 % compared with no alanine): 190%
OD 530 (AHAS [5]; canola 45A71, alanine 4 %, pH 6, 14 hours): 0.997
Increased Activity (%) (AHAS [5]; canola Westar, alanine 0.063 % compared with no alanine): 195%
OD 530 (AHAS [5]; canola Westar, alanine 0.063 %, pH 6, 14 hours): 0.978
Increased Activity (%) (AHAS [5]; canola Westar, alanine 0.125 % compared with no alanine): 177%
OD 530 (AHAS [5]; canola Westar, alanine 0.125 %, pH 6, 14 hours): 0.885
Increased Activity (%) (AHAS [5]; canola Westar, alanine 0.25 % compared with no alanine): 239%
OD 530 (AHAS [5]; canola Westar, alanine 0.25 %, pH 6, 14 hours): 1.197
Increased Activity (%) (AHAS [5]; canola Westar, alanine 0.5 % compared with no alanine): 229%
OD 530 (AHAS [5]; canola Westar, alanine 0.5 %, pH 6, 14 hours): 1.149
Increased Activity (%) (AHAS [5]; canola Westar, alanine 1 % compared with no alanine): 396%
OD 530 (AHAS [5]; canola Westar, alanine 1 %, pH 6, 14 hours): 1.983
Increased Activity (%) (AHAS [5]; canola Westar, alanine 2 % compared with no alanine): 250%
OD 530 (AHAS [5]; canola Westar, alanine 2 %, pH 6, 14 hours): 1.25
Increased Activity (%) (AHAS [5]; canola Westar, alanine 4 % compared with no alanine): 201%
OD 530 (AHAS [5]; canola Westar, alanine 4 %, pH 6, 14 hours): 1.009
% of No Alaninor Pyruvate (AHAS [5]; canola, Alanine 0.5 %, 14 hours): 144%
% of No Alaninor Pyruvate (AHAS [5]; canola, Alanine 1 %, 14 hours): 174%
% of 0/0 (AHAS [5]; [9]): 129% and 104% and 100%
OD 530, Avg. of the treated discs (AHAS [5]; [9]): 1.538 and 1.574 and 1.298
OD 530, Treated (AHAS [5]; canola, Alanine (100 mM), single treated discs, replicates 1-3, 14 hours): 1.529 and 1.487 and 1.335 and 1.760 and 1.691 and 1.551 and 1.498 and 1.571 and 1.007
Ratio (Ala/No Ala) (AHAS [6]; Sunflower, alanine 1.000 % vs 0.000 %): 3.8
OD 530 (AHAS [6]; Sunflower, alanine 1.000 %, 500 μM CPCA): 1.857
Ratio (Ala/No Ala) (AHAS [6]; Sunflower, pH 4): 4.67
in vivo AHAS activity, Alanine (%) 1 (AHAS [6]; Sunflower, pH 4): 1.682
Ratio (Ala/No Ala) (AHAS [6]; Sunflower, pH 5): 3.62
in vivo AHAS activity, Alanine (%) 1 (AHAS [6]; Sunflower, pH 5): 0.745
Ratio (Ala/No Ala) (AHAS [6]; Sunflower, pH 6): 5.20
in vivo AHAS activity, Alanine (%) 1 (AHAS [6]; Sunflower, pH 6): 0.843
Ratio (Ala/No Ala) (AHAS [6]; Sunflower, pH 7): 4.10
in vivo AHAS activity, Alanine (%) 1 (AHAS [6]; Sunflower, pH 7): 0.48
OD 530 (AHAS [6]; sunflower, 1% Alanine, disc size 0.25 cm^2, 7 discs): 1.861
OD 530 (AHAS [6]; sunflower, 1% Alanine, disc size 0.56 cm^2, 3 discs): 0.695
OD 530 (AHAS [6]; sunflower, 1% Alanine, disc size 0.82 cm^2, 2 discs): 0.646
OD 530 (AHAS [6]; sunflower, 1% Alanine, disc size 1.76 cm^2, 1 disc): 0.447
